Laboratory results taken from US4619823A, “Radioactive iodine labeled metaraminol and diagnostic agent containing platelets labeled therewith” (Nihon Medi-Physics Co., Ltd., priority 1983, dated 1986).

How the values were obtained:
[1] = test system: platelets; details: 100 µM
[2] = background statement; cited from earlier work

SMILES | activity [1] | toxicity [2]
NCCc1c[nH]c2ccc(O)cc12 [Serotonin] | 17.1 ± 10.3% | –
Cc1ccc(N(CC2=NCCN2)c2cccc(O)c2)cc1 [Phentolamine] | 43.1 ± 3.4% | –
CN(C)CCCN1c2ccccc2CCc2ccccc21 [Imipramine] | 45.8 ± 6.3% | –
CC(C)NCC(O)COc1cccc2ccccc12 (stereo not shown) [Propranolol] | 18 ± 3.1% | –
Oc1cccc2cccnc12 [oxine] | – | relatively high toxicity
CNCC(O)c1ccc(O)c(O)c1 (stereo not shown) [Adrenaline] | 61.6 ± 8.3% | –
CC(N)C(O)c1cccc(O)c1 (stereo not drawn) [metaraminol, alpha-(1-aminoethyl)-3-hydroxybenzenemethanol] | – | no practical toxicity problem
